Measurements reported in patent publication US10583109B2, “Use of silver(I) complexes as anticancer agents” (University of Johannesburg, priority 2012, dated 2020).

How the values were obtained:
Assay type in all cases: cell-based
[1] = test system: SNO-oesophageal cancer cells; assay: Morphological features of SNO-oesophageal cancer cells by inverse light microscopy; details: 10 μM, 24 hours of treatment
Procedure: Morphological studies were done by means of an Axiovert 25 inverted microscope (Carl Zeiss, Göttingen, Germany) with Axio Vision 3.1 software (Carl Zeiss, Göttingen, Germany) using an magnification of 100×.
After 24 hours of treatment with complexes (1)-(5) including their ligands the cells were examined under said Axiovert 25 inverted light microscope. This was done to determine how the complexes of the present invention influence morphology which was compared to 100 μM Cisplatin (apoptotic control) and 15% H2O2 (necrotic control).
Light microscope images indicating the morphology of the differentially treated SNO-oesophageal cancer cells is shown in FIG. 8. An untreated control (a) including 100 μM Cisplatin (b), an apoptotic control and 15% H2O2 (c), and a necrotic control was included. Cells were treated with 10 μM silver(I) thiocyanate phosphine complexes (1)-(5) as well as their separate ligands (Ligand-1 to Ligand-5, respectively) (FIGS. 8d to 8m). Black arrows represent signs of apoptosis, while the white arrows represent signs of necrosis.
An Axiovert 25 inverted microscope was used to examine if these complexes affect the morphological features of the malignant cells in any other way. This was done at a magnification of 100× with the use of Axio Version 3.1 software (Carl Zeiss, Gottingen, Germany).
Morphological studies where done after 24 hours of treatment to determine how these compounds influence/change specific features of the malignant SNO-oesophageal cancer cells, compared to the untreated (UC) and 1% DMSO vehicle control. The treated cancer cells including their controls were examined under an Axiovert 25 inverted light microscope (Carl Zeiss, Göttingen, Germany) with Axio Vision 3.1 software (Carl Zeiss, Göttingen, Germany) using a 100× magnification. In FIG. 19, the morphology of the different controls including Ligand-10 and complexes (10)-(12) are represented. To predict the targeting mechanisms of these compounds, the treated cells were compared to 100 μM Cisplatin (apoptotic control) and 25% H2O2 (necrotic control).

[2] = test system: SNO-oesophageal cancer cells; details: for cells' viability: 10 µM
Procedure: The SNO-oesophageal cancer cells were cultured in Dulbecco's modified Eagles medium (DMEM) containing 10% Foetal bovine serum (FBS), 0.8% Penicillin/Streptomycin/Fungizone and 0.2% Gentamycin. The SNO-oesophageal cancer cells were subcultured every 48 hours and incubated at 37° C. under a 5% CO2 humidified atmosphere. After 48 hours the cells were trypsinized and plated (6×10^5 cells) in 3.5 cm culture dishes and left to cultivate for 24 hours.
MCF-7 breast cancer cells, in terms of a first study, and SNO-oesophageal cancer cells, in terms of a second study, were treated with 10 μM silverthiocyanide complexes (1)-(5), as well as their ligands (Ligand-1 to Ligand-5) over a 24 hour incubation period. These complexes were dissolved in 0.1% Dimethyl sulfoxide (DMSO). The DMSO alone (vehicle control) decreased the viability with approximately 2.2%, signifying its minimal influence in cancer cell growth. For comparative purposes, 100 μM Cisplatin (CDDP) and 25% H2O2 was included which respectively serves as the apoptotic and necrotic controls. Cisplatin was prepared in 0.9% NaCl, whereas H2O2 was prepared in the supplemented DMEM media right before treatment. An untreated negative control (UT) was exposed to similar conditions as the treated cells and monitored during the experimental study.
An AlamarBlue® Viability® (Serotec, UK) assay was performed after a 24 hour treatment with complexes (1)-(5) and their ligands (Ligand-1 to Ligand-5, respectively) to evaluate the cellular effect the instant complexes (and their ligands) may have on the cancer cells. AlamarBlue® dye (10%) was incubated with trypsinized cells over a 2 hour period before the fluorescence was measured with a Synergy HT Multi-Detection Microplate reader (BioTek, Winooski, Vt.) at wavelengths of 530 nm and (excitation) and 590 nm (emission). This fluorescent based assay in particular involves the metabolic oxidation-reduction reaction of resazurin to a reduced resorufin product that is directly proportional to the amount of viable cells.
The percentage cellular viability of differentially treated SNO-oesophageal cells was determined using an AlamarBlue® assay, as depicted in FIG. 7. Different controls (grey) were included: untreated, 0.1% DMSO solvent and apoptotic control (100 μM Cisplatin) as well as the corresponding ligands (10 μM) of complexes (1)-(5). Cells were treated with silver(I) thiocyanate phosphine complexes (1)-(5) at a concentration of 10 μM. The percentages were calculated with respect to the control and error bars were constructed on the basis of Standard Error of the Mean (SEM) where n=9 except for the ligand of compound 4 (n=8). The P-values (*P<0.001 and **P<0.0001) were determined with the Student's T-test to evaluate the significant difference.
The cells were thereafter treated with complexes (6)-(9) at a concentration of 10 μM prepared in 0.1% DMSO. Treatment with either 25% H2O2 or 100 μM CDDP served as controls for necrosis and apoptosis respectively. The CDDP was prepared in 0.9% NaCl while the H2O2 was diluted with supplemented DMEM prior to treatment.
A suspension (100 μl) of the differentially treated cells was added in triplicate to a microtiter plate. In the dark, AlamarBlue® dye (10 μl) was added to each well containing a sample, followed by a 2 hour incubation in a 5% CO2 incubator at 37° C. The fluorescence was read on a Synergy HT Multi-Detection Microplate reader at a wavelength of 530 nm and (excitation) and 590 nm (emission). In terms of this study, the apoptotic control CDDP (100 μM) was included. Error bars represent the standard error of the mean (SEM) where n=9. The Student's T-test was used to determine the significant difference of the treatments with respect to DMSO (P*<0.05 and P**<0.001). The silver(I) nitrate phosphine complexes under evaluation decreased the cancer cell viability to a large extent compared to DMSO except complex (9).
SNO-oesophageal cancer cells were a gift from the University of Pretoria, RSA. […]

[3] = test system: SNO-oesophageal cancer cells; assay: Flow cytometric analysis (Annexin-V FITC / PI) of apoptosis and/or necrosis in SNO-oesophageal cancer cells; details: 10 μM, 24 hours of treatment
Procedure: To determine if either apoptosis or necrosis occurred, the cells were double labelled with Annexin-V FITC and Propidium Iodide (PI) by means of an Annexin-V FITC assay kit (Serotec, UK). This was done according to manufacturer's instructions with a few adjustments. Briefly, the cells (±3×10^5 cells/ml) were washed twice with cold phosphate buffered saline (PBS), followed by the addition of 100 μl 1× binding buffer. Two and a half microliters of Annexin-V along with 5 μl PI were added in the dark and was incubated for 15 minutes at room temperature. After incubation, 400 μl 1× binding buffer was added and cells were analysed using the FACSAria flow cytometer (BD Biosciences, San Jose, Calif.) with FACSDiva software (BD Biosciences, San Jose, Calif.) 492 nm (excitation) and 520 nm for Annexin and 488 nm and 575 nm(emission) for PI.
The cell membrane contains a negatively charged phosphatidylserine (PS) on the inner leaflet and is exposed when apoptosis or necrosis takes place. Annexin-V interacts with PS in both apoptotic and necrotic cells, making these cellular deaths undistinguishable. This is overcome by using PI as an alternative label that interacts with the exposed DNA of necrotic cells only, leading to the fluorescent detection of both these labels. Pie charts (FIG. 9) were constructed for all the controls (including Ligand-1 to Ligand-5) and the different silver(I) thiocyanate phosphine complexes (1)-(5).
Pie charts representing the four different flow cytometric quadrants of Annexin-V and […] to determine the mode of cellular death induced in differentially treated SNO-oesophageal cells are represented in FIG. 9. An untreated control (A), apoptotic control (B) and necrotic control (C) were included. Cells were treated with 10 μM of the different ligands including the silver(I) thiocyanate phosphine complexes (1)-(5). An average percentage was calculated for all segments where the SEM is n=3 for all treatments except for 15% H2O2 (n=2). The four segments represent the following: White segment—negative for FITC and PI, Light grey segment—positive for FITC but negative for PI, Dark grey segment—positive for PI but negative for FITC and Black segment—positive for both FITC and PI. Cells undergoing early apoptosis are represented by the light grey segment, while those of late apoptosis and primary necrosis are represented by the black segment. Necrotic cells are represented by the dark grey segment and intact viable cells are shown by the white segment.
Approximately 3×10^5 cells were washed with ice cold phosphate buffered saline solution (PBS). The cells were double labeled using an Annexin-V FITC assay kit adjusting the protocol. A 1× binding buffer (100 μl) was used to fix the cells. Annexin-V (2.5 μl) and Propidium Iodide (PI—5 μl) labels were added respectively followed by a 15 minute incubation, at room temperature, in the dark. After the incubation period, 400 μl of the 1× binding buffer was added, where counting of the cellular events was made using an FACSAria flow cytometer (BD Biosciences, San Jose, Calif.) with FACSDiva software (BD Biosciences, San Jose, Calif.). This technique in particular identifies whether predicted apoptotic cell death (or necrosis) was induced by these complexes.
As observed in FIG. 14, dot blots represent the mode of cellular death induced in the SNO-oesophageal cancer cells after 24 hours of treatment. FIG. 14(a): 0.1% DMSO, FIG. 14(b): 100 μM CDDP, FIG. 14(c): 25% H2O2, FIG. 14(d-i): complexes (6)-(9). An average percentage was calculated for all quadrants where the SEM is n=2 for all treatments. The four quadrants represent the following: Quadrant Q3 is negative for FITC and PI, Quadrant Q4 is positive for FITC but negative for PI, Quadrant Q1 is positive for PI but negative for FITC and Quadrant Q2 is positive for both FITC and PI. Cells undergoing early apoptosis are more likely to be found in Quadrant Q4 while those of late apoptosis and primary necrosis will be found in Quadrant Q2. […]

Row | Compound | signs of apoptosis (morphology) [1] | apoptotic cell death (flow cytometry, Q4 and Q2) [3] [%] | also measured
1 | c1ccc(P(c2ccccc2)c2ccccc2)cc1 [Ligand-1, triphenyl phosphine, reference compound] | minimal | – | –
2 | Cc1ccc(P(c2ccc(C)cc2)c2ccc(C)cc2)cc1 [Ligand-2, P(p-MeC6H4)3, reference compound] | minimal | – | cells' viability [2]: 86.4%
3 | Fc1ccc(P(c2ccc(F)cc2)c2ccc(F)cc2)cc1 [Ligand-3, P(4-FC6H4)3, reference compound] | no | – | –
4 | Clc1ccc(P(c2ccc(Cl)cc2)c2ccc(Cl)cc2)cc1 [Ligand-4, tris parachlorophenyl phosphine, reference compound] | minimal | – | –
5 | COc1ccc(P(c2ccc(OC)cc2)c2ccc(OC)cc2)cc1 [Ligand-5, P(p-MeOC6H4)3, reference compound] | minimal | – | cells' viability [2]: 80.7%
6 | O=[N+]([O-])[O-].[Ag+].c1ccc(P(c2ccccc2)c2ccccc2)cc1 [complex (6), AgNO3(PPh3)] | – | 20 | –
7 | O=[N+]1[O][Ag]([P+](c2ccccc2)(c2ccccc2)c2ccccc2)([P+](c2ccccc2)(c2ccccc2)c2ccccc2)[O]1 [complex (7), AgNO3(PPh3)2] | – | 30.6 | –
8 | O=[N+]([O-])[O][Ag]([P+](c1ccccc1)(c1ccccc1)c1ccccc1)([P+](c1ccccc1)(c1ccccc1)c1ccccc1)[P+](c1ccccc1)(c1ccccc1)c1ccccc1 [complex (8), AgNO3(PPh3)3] | – | 24 | –
9 | [AgSCN{P(4-MeOC6H4)3}2]n [complex (5)] | – | – | percentage cellular viability / toxicity ([2]; 10 μM, 24 hour treatment, compared to the control): highly toxic; necrotic cell death (morphology) [1]: Necrotic cell death was also observed
